Columns and labels:
Assay type in all cases: in vivo, cynomolgus macaques
[1] = test system: MCP-1; experiment: MCP-1 in plasma after 3rd dose, multiplexed immunoassay; conditions: after 3rd dose of 100 mg/kg, pre-treatment subtracted, p<0.05
Description: (§1) Each point indicates an individual animal. Fine lines indicate geometric mean. * indicates significant difference (p<0.05) between pre-treatment and post-dose values; ns: not significant. Non-responders are defined as animals with baseline interferon-α values after both the 1st and 2nd doses. Three such animals were excluded in the QOD group (n=7 final). No animals were excluded from the QD group (n=20 final).
(§2) The pharmacodynamic response of a continuous daily dosing schedule (QD) was compared to a cyclic dosing schedule of every-other-day (QOD) and a cyclic dosing schedule of 3 consecutive days of dosing followed by 4 consecutive days of resting (‘3 on 4 off’). […] Immune parameters measured include cytokine and chemokine secretion in plasma measured by multiplexed immunoassay, neopterin levels in plasma measured by Enzyme Linked Immunosorbant Assay (ELISA), and cytotoxic T cell (CD8 T) effector proliferative state and B cell proliferative state in peripheral blood leukocytes as measured by flow cytometry analysis of Ki67 levels. […]
(§3) Cynomolgus macaques were given either 30 mg/kg or 100 mg/kg of Compound I as the tosylate or 2 mg/kg 852A for 7 consecutive days of QD dosing followed by 7 days of additional monitoring. The immune response was determined by measuring cytokine and neopterin levels in plasma, as well as B cell and T cell responses in peripheral blood.

[2] = test system: IFN-α; experiment: IFN-α level in plasma after oral dosing, multiplexed immunoassay; conditions: for Mean Concentration of IFN-α: oral; for IFN-α levels on the third day of the cycle: 3 on 4 off, 100 mg/kg, average±SEM, n=4
Description: (§4) The pharmacodynamic response of a continuous daily dosing schedule (QD) was compared to a cyclic dosing schedule of every-other-day (QOD) and a cyclic dosing schedule of 3 consecutive days of dosing followed by 4 consecutive days of resting (‘3 on 4 off’). All three dosing schedules were conducted with orally administered Compound I Tosylate. Immune parameters measured include cytokine and chemokine secretion in plasma measured by multiplexed immunoassay, neopterin levels in plasma measured by Enzyme Linked Immunosorbant Assay (ELISA), and cytotoxic T cell (CD8 T) effector proliferative state and B cell proliferative state in peripheral blood leukocytes as measured by flow cytometry analysis of Ki67 levels.
Cynomolgus macaques were given 10, 30, 100 or 300 mg/kg (Compound I equivalents) of Compound I Tosylate according to an every-other-day dosing schedule for 14 days, 28 days, or 13 weeks followed by recovery periods of various lengths. The immune response was determined by measuring cytokine and neopterin levels in plasma, as well as B cell and T cell responses in peripheral blood.
(§5) Cynomolgus macaques were given either 30 mg/kg or 100 mg/kg of Compound I as the tosylate according to a dosing schedule of 3 consecutive days of dosing followed by 4 consecutive days of resting (‘3 on 4 off’) over 3 or 8 weeks. The immune response was determined by measuring cytokine and neopterin levels in plasma, as well as B cell and T cell responses in peripheral blood.
as §3

[3] = test system: IL-6; experiment: IL-6 in plasma after 3rd dose, multiplexed immunoassay; conditions: after 3rd dose of 100 mg/kg
Description: as §1, §2, §3

[4] = test system: IL-12; experiment: IL-12 in plasma after 3rd dose, multiplexed immunoassay; conditions: after 3rd dose of 100 mg/kg, pre-treatment subtracted, p<0.05
Description: as §1, §2, §3

[5] = test system: TNF-α; experiment: TNF-α in plasma after 3rd dose, multiplexed immunoassay; conditions: after 3rd dose of 100 mg/kg, QD (D3) versus QOD (D5)
Description: as §1, §2, §3

[6] = test system: cytotoxic T cell (CD8 T) in peripheral blood leukocytes; experiment: Cytotoxic T cell (CD8 T) effector proliferative state, flow cytometry of Ki67; conditions: 3 on 4 off schedule, FIG. 3B (100 mg/kg)
Description: as §4, §5

[7] = test system: neopterin; experiment: Neopterin level in plasma, ELISA; conditions: QD schedule, 7 consecutive days, FIG. 1C (100 mg/kg)
Description: as §4, §3

[8] = test system: B cell in peripheral blood leukocytes; experiment: B cell proliferative state, flow cytometry of Ki67; conditions: 3 on 4 off schedule, repeated courses, FIG. 4B (100 mg/kg)
Description: as §4, §5

[9] = QD schedule, 100 mg/kg per dose, p<0.05

CC(=O)O[C@@H]1C[C@@H](CO)O[C@H]1n1c(=O)sc2cnc(N)nc21 [Compound I, 5-amino-3-(2′-O-acetyl-3′-deoxy-beta-D-ribofuranosyl)-3H-thiazolo[4,5-d]pyrimidin-2-one]
Level of MCP-1 expressed relative to IFN-α, QD compared to QOD [1]: significantly higher | Mean Concentration of IFN-α ([2]; 3 on 4 off schedule, Day 1, 100 mg/kg per dose as tosylate salt, 3 hours after dosing, mean ± SEM, pre-treatment subtracted): 175 ± 69 pg/mL | Mean Concentration of IFN-α ([2]; 3 on 4 off schedule, Day 3, 100 mg/kg per dose as tosylate salt, 3 hours after dosing, mean ± SEM, pre-treatment subtracted): 4192 ± 768 pg/mL | Mean Concentration of IFN-α ([2]; 3 on 4 off schedule, Day 5 (resting day, no dose), 100 mg/kg per dose as tosylate salt): Baseline* | Mean Concentration of IFN-α ([2]; 3 on 4 off schedule, Day 7 (resting day, no dose), 100 mg/kg per dose as tosylate salt): Baseline* | IFN-α levels on the third day of the cycle ([2]; first cycle): 4192±768 | IFN-α levels on the third day of the cycle ([2]; second cycle): 3832±1329 | IFN-α levels on the third day of the cycle ([2]; third cycle): 3879±1140 | Mean Concentration of IFN-α ([2]; QD schedule, Day 1, 100 mg/kg per dose as tosylate salt, 3 hours after dosing, mean ± SEM, pre-treatment subtracted): 498 ± 252 pg/mL | Mean Concentration of IFN-α ([2]; QD schedule, Day 3, 100 mg/kg per dose as tosylate salt, 3 hours after dosing, mean ± SEM, pre-treatment subtracted): 8057 ± 1566 pg/mL | Mean Concentration of IFN-α ([2]; QD schedule, Day 5, 100 mg/kg per dose as tosylate salt, 3 hours after dosing, mean ± SEM, pre-treatment subtracted): 2166 ± 615 pg/mL | Mean Concentration of IFN-α ([2]; QD schedule, Day 7, 100 mg/kg per dose as tosylate salt, 3 hours after dosing, mean ± SEM, pre-treatment subtracted): 151 ± 105 pg/mL | Mean Concentration of IFN-α ([2]; QOD schedule, Day 1, 100 mg/kg per dose as tosylate salt, 3 hours after dosing, mean ± SEM, pre-treatment subtracted): 1293 ± 513 pg/mL | Mean Concentration of IFN-α ([2]; QOD schedule, Day 3, 100 mg/kg per dose as tosylate salt, 3 hours after dosing, mean ± SEM, pre-treatment subtracted): 1459 ± 634 pg/mL | Mean Concentration of IFN-α ([2]; QOD schedule, Day 5, 100 mg/kg per dose as tosylate salt, 3 hours after dosing, mean ± SEM, pre-treatment subtracted): 1816 ± 1012 pg/mL | Mean Concentration of IFN-α ([2]; QOD schedule, Day 7, 100 mg/kg per dose as tosylate salt, 3 hours after dosing, mean ± SEM, pre-treatment subtracted): 2375 ± 982 pg/mL | IL-6 induction versus pre-treatment ([3]; QD (D3) versus QOD (D5)): significantly induced (p<0.05) by the QD, but not by the QOD schedule | Level of IL-6 expressed relative to IFN-α, QD compared to QOD ([3]; pre-treatment subtracted, p<0.05): significantly higher | Level of IL-12 expressed relative to IFN-α, QD compared to QOD [4]: significantly higher | TNF-α induction versus pre-treatment [5]: significantly induced (p<0.05) by the QD, but not by the QOD schedule

CC(=O)O[C@@H]1C[C@@H](CO)O[C@H]1n1c(=O)sc2cnc(N)nc21.Cc1ccc(S(=O)(=O)O)cc1 [Compound I Tosylate]
IFN-α level at day 7 for QOD higher than on day 7 for QD ([2]; 100 mg/kg per dose, p<0.05): 15.8 fold | IFN-α levels in plasma after 6 doses ([2]; 3 on 4 off schedule, day 3 in the second cycle, 100 mg/kg (Compound I equivalents)): 3832±1329 | IFN-α response on day 7 lower than response on day 1 ([2]; QD schedule, 100 mg/kg per dose): 3.3 fold | IFN-α levels on day 5 compared to day 3 [2, 9]: significantly reduced | IFN-α levels on day 7 compared to day 3 [2, 9]: significantly reduced | Time of peak IFN-α level before decline ([2]; QD schedule, 7 consecutive days, FIG. 1C (100 mg/kg)): 3-4 days of dosing | IFN-α levels in plasma after 6 doses ([2]; QD schedule, Day 6, 100 mg/kg (Compound I equivalents)): 922±739 | T cell responses over repeated courses [6]: either maintained or enhanced | Time of peak neopterin level before decline [7]: 3-4 days of dosing | B cell proliferative state as measured by Ki67 levels [8]: enhanced

Reference: patent US9161946B2, “Dosing methods for treating disease” (Anadys Pharmaceuticals, Inc., priority 2007, dated 2015)
